{"source": "ChEMBL document CHEMBL4609996", "about": "“Discovery of a novel 2,3-dimethylimidazo[1,2-a]pyrazine-6-carboxamide M4 positive allosteric modulator (PAM) chemotype” (Bioorg Med Chem Lett, 2020)", "key": {"[1]": {"experiment": "Unbound brain-to-plasma concentration ratio in rat", "type": "ADME, cell-free", "conditions": "read-out: K(p,uu,brain); call rule not given here"}, "[2]": {"experiment": "Brain to plasma permeability coefficient, Kp of the compound in rat", "type": "ADME, cell-free"}, "[3]": {"experiment": "Unbound fraction in human plasma", "type": "ADME, cell-free"}, "[4]": {"experiment": "Hepatic clearance in rat", "type": "ADME", "conditions": "in vivo"}, "[5]": {"experiment": "Hepatic clearance in human", "type": "ADME"}, "[6]": {"experiment": "Unbound fraction in rat plasma", "type": "ADME, cell-free"}, "[7]": {"experiment": "Unbound fraction in rat brain", "type": "ADME, tissue-based"}, "[8]": {"molecular_target": "T1, Muscarinic acetylcholine receptor M4 (Homo sapiens, UniProt P08173)", "T1 sequence (P08173 whole entry)": "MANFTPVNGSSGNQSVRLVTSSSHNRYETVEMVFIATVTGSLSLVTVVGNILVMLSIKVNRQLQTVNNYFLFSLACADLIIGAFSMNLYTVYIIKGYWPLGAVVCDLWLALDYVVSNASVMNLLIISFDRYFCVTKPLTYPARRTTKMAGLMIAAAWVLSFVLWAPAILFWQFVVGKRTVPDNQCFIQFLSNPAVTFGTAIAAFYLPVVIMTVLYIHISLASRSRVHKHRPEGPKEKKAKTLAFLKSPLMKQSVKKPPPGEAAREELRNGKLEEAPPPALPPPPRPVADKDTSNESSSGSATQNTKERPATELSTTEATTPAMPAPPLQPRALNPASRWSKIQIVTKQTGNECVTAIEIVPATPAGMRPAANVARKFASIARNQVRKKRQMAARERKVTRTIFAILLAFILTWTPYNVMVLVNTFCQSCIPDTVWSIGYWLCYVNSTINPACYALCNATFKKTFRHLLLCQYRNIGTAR", "experiment": "Positive allosteric modulation of human muscarinic M4 receptor expressed in CHO cells co-expressing Gqi5 assessed as increase in acetylcholine-induced calcium mobilization", "type": "functional, cell-based"}, "[9]": {"experiment": "Intrinsic clearance in rat microsomes", "type": "ADME, Microsome"}, "[10]": {"experiment": "Intrinsic clearance in human microsomes", "type": "ADME, Microsome"}, "[11]": {"molecular_target": "T2, Muscarinic acetylcholine receptor M4 (Rattus norvegicus, UniProt P08485)", "T2 sequence (P08485 whole entry)": "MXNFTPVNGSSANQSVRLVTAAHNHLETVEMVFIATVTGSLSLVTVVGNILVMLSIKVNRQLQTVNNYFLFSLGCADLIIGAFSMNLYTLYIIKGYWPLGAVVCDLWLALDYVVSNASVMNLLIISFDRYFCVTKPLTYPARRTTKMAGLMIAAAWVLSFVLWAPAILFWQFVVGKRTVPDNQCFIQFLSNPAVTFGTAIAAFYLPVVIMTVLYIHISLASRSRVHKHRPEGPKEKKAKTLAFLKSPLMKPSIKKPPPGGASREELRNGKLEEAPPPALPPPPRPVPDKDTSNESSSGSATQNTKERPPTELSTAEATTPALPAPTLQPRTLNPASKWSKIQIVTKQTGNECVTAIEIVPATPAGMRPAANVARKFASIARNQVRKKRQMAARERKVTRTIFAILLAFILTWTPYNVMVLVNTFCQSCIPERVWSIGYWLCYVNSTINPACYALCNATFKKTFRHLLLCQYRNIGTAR", "experiment": "Positive allosteric modulation of rat muscarinic M4 receptor"}}, "data": [{"smiles": "Cc1c2cc(C(=O)NC3CN(c4cc(Cl)ncc4Cl)C3)ccc2nn1C", "values": [{"measurement": "Kp uu", "setting": "[1]", "value": 0.04}, {"measurement": "Kp", "setting": "[2]", "value": 0.05}, {"measurement": "fraction unbound", "setting": "[3]", "value": 0.043}, {"measurement": "CLH", "setting": "[4]", "value": 20, "unit": "mL/min/kg"}, {"measurement": "CLH", "setting": "[5]", "value": 13, "unit": "mL/min/kg"}, {"measurement": "fraction unbound", "setting": "[6]", "value": 0.042}, {"measurement": "fraction unbound", "setting": "[7]", "value": 0.032}]}, {"smiles": "Cn1nnc2ccc(C(=O)NC3CN(c4cc(Cl)ncc4Cl)C3)cc21", "values": [{"measurement": "Kp uu", "setting": "[1]", "value": "< 0.11"}, {"measurement": "Kp", "setting": "[2]", "value": "< 0.05"}, {"measurement": "fraction unbound", "setting": "[3]", "value": 0.132}, {"measurement": "CLH", "setting": "[4]", "value": 8.7, "unit": "mL/min/kg"}, {"measurement": "CLH", "setting": "[5]", "value": 21, "unit": "mL/min/kg"}, {"measurement": "fraction unbound", "setting": "[6]", "value": 0.024}, {"measurement": "fraction unbound", "setting": "[7]", "value": 0.053}]}, {"smiles": "Cc1c2cc(F)c(C(=O)NC3CN(c4cc(Cl)ncc4Cl)C3)cc2nn1C", "values": [{"measurement": "EC50", "setting": "[8]; cho", "value": "Not Active"}]}, {"smiles": "Cn1nc2ccc(C(=O)NC3CN(c4cc(Cl)ncc4Cl)C3)cc2c1C1CC1", "values": [{"measurement": "EC50", "setting": "[8]; cho", "value": "Not Active"}]}, {"smiles": "CCn1nc2ccc(C(=O)NC3CN(c4cc(Cl)ncc4Cl)C3)cc2c1C", "values": [{"measurement": "EC50", "setting": "[8]; cho", "value": "Not Active"}]}, {"smiles": "COc1cc(N2CC(NC(=O)c3ccc4nnc(C)n4c3)C2)c(Cl)cn1", "values": [{"measurement": "EC50", "setting": "[8]; read-out: EC50", "value": "> 10000", "unit": "nM"}]}, {"smiles": "COc1cc(N2CC(NC(=O)c3cn4c(C)c(C)nc4cn3)C2)c(Cl)cn1", "values": [{"measurement": "Kp uu", "setting": "[1]", "value": "< 1.33"}, {"measurement": "Kp", "setting": "[2]", "value": "< 1.08"}, {"measurement": "fraction unbound", "setting": "[3]", "value": 0.045}, {"measurement": "CLint scaled", "setting": "[9]", "value": 83, "unit": "mL/min/kg"}, {"measurement": "CLint scaled", "setting": "[10]", "value": 25, "unit": "mL/min/kg"}, {"measurement": "EC50", "setting": "[11]", "value": 295, "unit": "nM"}, {"measurement": "fraction unbound", "setting": "[6]", "value": 0.017}, {"measurement": "fraction unbound", "setting": "[7]", "value": 0.021}]}, {"smiles": "COc1cc(N2CC(NC(=O)c3ccc4snc(C)c4c3)C2)c(Cl)cn1", "values": [{"measurement": "EC50", "setting": "[8]; cho", "value": "Not Active"}]}, {"smiles": "Cc1c2cc(C(=O)NC3CN(c4cc(Cl)ncc4Cl)C3)ncc2nn1C", "values": [{"measurement": "Kp uu", "setting": "[1]", "value": 0.41}, {"measurement": "Kp", "setting": "[2]", "value": 0.3}, {"measurement": "fraction unbound", "setting": "[3]", "value": 0.014}, {"measurement": "CLint scaled", "setting": "[9]", "value": 59, "unit": "mL/min/kg"}, {"measurement": "CLint scaled", "setting": "[10]", "value": 26, "unit": "mL/min/kg"}, {"measurement": "EC50", "setting": "[11]", "value": 331, "unit": "nM"}, {"measurement": "fraction unbound", "setting": "[6]", "value": 0.022}, {"measurement": "fraction unbound", "setting": "[7]", "value": 0.03}]}, {"smiles": "Cc1nc2ccc(C(=O)NC3CN(c4cc(Cl)ncc4Cl)C3)cn2c1C", "values": [{"measurement": "Kp uu", "setting": "[1]", "value": 0.21}, {"measurement": "Kp", "setting": "[2]", "value": 0.1}, {"measurement": "fraction unbound", "setting": "[3]", "value": 0.03}, {"measurement": "CLint scaled", "setting": "[9]", "value": 130, "unit": "mL/min/kg"}, {"measurement": "CLint scaled", "setting": "[10]", "value": 39, "unit": "mL/min/kg"}, {"measurement": "EC50", "setting": "[11]", "value": 433, "unit": "nM"}, {"measurement": "fraction unbound", "setting": "[6]", "value": 0.013}, {"measurement": "fraction unbound", "setting": "[7]", "value": 0.027}]}, {"smiles": "Cn1c(C(F)(F)F)nc2ccc(C(=O)NC3CN(c4cc(Cl)ncc4Cl)C3)cc21", "values": [{"measurement": "EC50", "setting": "[11]", "value": 378, "unit": "nM"}]}, {"smiles": "Cc1c2nc(C(=O)NC3CN(c4cc(Cl)ncc4Cl)C3)ccc2nn1C", "values": [{"measurement": "EC50", "setting": "[8]; cho", "value": "Not Active"}]}, {"smiles": "COc1cc(N2CC(NC(=O)c3cc4c(C)n(C)nc4cn3)C2)c(Cl)cn1", "values": [{"measurement": "Kp uu", "setting": "[1]", "value": 0.97}, {"measurement": "Kp", "setting": "[2]", "value": 0.67}, {"measurement": "fraction unbound", "setting": "[3]", "value": 0.017}, {"measurement": "CLint scaled", "setting": "[9]", "value": 33, "unit": "mL/min/kg"}, {"measurement": "CLint scaled", "setting": "[10]", "value": 28, "unit": "mL/min/kg"}, {"measurement": "EC50", "setting": "[11]", "value": 339, "unit": "nM"}, {"measurement": "fraction unbound", "setting": "[6]", "value": 0.022}, {"measurement": "fraction unbound", "setting": "[7]", "value": 0.032}]}, {"smiles": "Cn1nc2ccc(C(=O)NC3CN(c4cc(Cl)ncc4Cl)C3)cc2c1C(F)F", "values": [{"measurement": "EC50", "setting": "[8]; cho", "value": "Not Active"}]}, {"smiles": "Cc1noc2ccc(C(=O)NC3CN(c4cc(Cl)ncc4Cl)C3)cc12", "values": [{"measurement": "EC50", "setting": "[8]; cho", "value": "Not Active"}]}, {"smiles": "COc1cc(N2CC(NC(=O)c3ccc4onc(C)c4c3)C2)c(Cl)cn1", "values": [{"measurement": "EC50", "setting": "[8]; cho", "value": "Not Active"}]}, {"smiles": "COc1cc(N2CC(NC(=O)c3ccc4c(c3)c(C)nn4C)C2)c(Cl)cn1", "values": [{"measurement": "EC50", "setting": "[8]; cho", "value": "Not Active"}]}, {"smiles": "COc1cc(N2CC(NC(=O)c3cc4nn(C)c(C)c4cc3F)C2)c(Cl)cn1", "values": [{"measurement": "EC50", "setting": "[8]; cho", "value": "Not Active"}]}, {"smiles": "Cc1nnc2ccc(C(=O)NC3CN(c4cc(Cl)ncc4Cl)C3)cn12", "values": [{"measurement": "EC50", "setting": "[8]; read-out: EC50", "value": "> 10000", "unit": "nM"}]}, {"smiles": "Cn1nc2ccc(C(=O)NC3CN(c4cc(Cl)ncc4Cl)C3)cc2c1C(F)(F)F", "values": [{"measurement": "EC50", "setting": "[8]; cho", "value": "Not Active"}]}, {"smiles": "COc1cc(N2CC(NC(=O)c3ccc4sc(C)nc4c3)C2)c(Cl)cn1", "values": [{"measurement": "EC50", "setting": "[8]; cho", "value": "Not Active"}]}, {"smiles": "COc1cc(N2CC(NC(=O)c3ccc4nn(C)c(C)c4n3)C2)c(Cl)cn1", "values": [{"measurement": "EC50", "setting": "[8]; cho", "value": "Not Active"}]}, {"smiles": "Cc1nc2ccc(C(=O)NC3CN(c4cc(Cl)ncc4Cl)C3)nn2c1C", "values": [{"measurement": "EC50", "setting": "[8]; cho", "value": "Not Active"}]}, {"smiles": "COc1cc(N2CC(NC(=O)c3ccc4nc(C)c(C)n4n3)C2)c(Cl)cn1", "values": [{"measurement": "EC50", "setting": "[8]; cho", "value": "Not Active"}]}, {"smiles": "Cc1nsc2ccc(C(=O)NC3CN(c4cc(Cl)ncc4Cl)C3)cc12", "values": [{"measurement": "EC50", "setting": "[8]; cho", "value": "Not Active"}]}, {"smiles": "Cc1nn(C)c2cnc(C(=O)NC3CN(c4cc(Cl)ncc4Cl)C3)cc12", "values": [{"measurement": "Kp uu", "setting": "[1]", "value": "< 0.45"}, {"measurement": "Kp", "setting": "[2]", "value": "< 0.24"}, {"measurement": "fraction unbound", "setting": "[3]", "value": 0.039}, {"measurement": "CLint scaled", "setting": "[9]", "value": 85, "unit": "mL/min/kg"}, {"measurement": "CLint scaled", "setting": "[10]", "value": 28, "unit": "mL/min/kg"}, {"measurement": "fraction unbound", "setting": "[6]", "value": 0.011}, {"measurement": "fraction unbound", "setting": "[7]", "value": 0.021}]}, {"smiles": "Cc1nc2cnc(C(=O)NC3CN(c4cc(Cl)ncc4Cl)C3)cn2c1C", "values": [{"measurement": "Kp uu", "setting": "[1]", "value": 1.09}, {"measurement": "Kp", "setting": "[2]", "value": 0.29}, {"measurement": "fraction unbound", "setting": "[3]", "value": 0.04}, {"measurement": "CLint scaled", "setting": "[9]", "value": 96, "unit": "mL/min/kg"}, {"measurement": "CLint scaled", "setting": "[10]", "value": 33, "unit": "mL/min/kg"}, {"measurement": "EC50", "setting": "[11]", "value": 233, "unit": "nM"}, {"measurement": "fraction unbound", "setting": "[6]", "value": 0.009}, {"measurement": "fraction unbound", "setting": "[7]", "value": 0.034}]}]}
